Earlier results, collected in patent US20050180917A1, “Delivery of neutron capture elements for neutron capture therapy” (priority 2001, published 2005).

Assays:
[1] = in vivo
[2] = review of prior art

Absolute tumour concentration [1] | Compound | toxicity [2]
16.5 µg/g | N[C@@H](Cc1ccc(B(O)O)cc1)C(=O)O [BPA, 4-dihydroxyborylphenylalanine] | low toxicity
6.9 µg/g | sodium mercaptoundecahydrododecaborate [BSH] | low toxicity
